What was measured:
[1] = system: susceptible durum line used as a check; assay: Tolerance test, susceptible durum check; type: in vivo, T. turgidum ssp durum; conditions: 80 g/h of imazamox
BW755 (FS4 only line) = assay: Seedling injury rating, one-gene line; type: in vivo, wheat; conditions: 200 and 600 grams per hectare
Method: (§1) Four genotypes were tested for tolerance to two different rates of imazamox. Genotypes included an FS4 only line, BW755; Tea1 15A, previously described as having two independent loci for tolerance to Imi-herbicides; a double-haploid derived line of EM2+FS4, and a line derived from the cross of 15A and 11A, through conventional bulk selection of the most tolerant plants over successive generations at increasing rates of imazamox. Rates of imazamox included 200 and 600 grams per hectare. Seedling injury of the 18 to 25 plants per treatment per genotype was rated on a per plant basis using five categories ranging from death to no injury.

[2] = system: EM2 line in Einkorn background; assay: Field evaluation of herbicide injury, EM2 line; type: in vivo, Triticum monococcum; conditions: for overall crop injury: three rates of imazamox
Method: (§2) Approximately 15,000 seeds of the Triticum monococcum spring habit accession “TM23” was treated with EMS. The method used was: (1) presoak seed in water for four hours, (2) treat with 0.3% EMS for 16 hours, (3) rinse in water for 8 hours, (4) air-dry for four hours, and (5) plant the seed. Some of the harvested seed was further increased without selection for tolerance to imidazolinone herbicides. The harvested seed was planted and treated with 40 g/ha of imazamox. A total of 120 kg of seed was planted, resulting in approximately 2.4 million plants treated, assuming a kernel weight of 35 mg and 70% seedling emergence. The generation of seed screened ranged from M2 to M5, with over 72% of seed at least M3. Five plants were identified as tolerant, designated EM1 through EM5, and transplanted to a greenhouse for seed production. EM2 was increased under imidazolinone herbicide selection prior to initial field testing (Example 4).
(§3) The EM2 line tolerant to imazamox (Example 1) was evaluated at a single field location for various agronomic characteristics that could be affected by herbicide injury. The 1998 data are means of two replications. Yield data from 1999 and 2000 are means of four replications. The other data from 1999 are means of two replications.
(§4) The EM2 line was evaluated for overall crop injury at three rates of imazamox, three times during the growing season.

[3] = system: F2 population of Crocus*2/EM2//CDC Tea1/3/2*AC Superb crossed by AC Avonlea; assay: Herbicide selection in F2 of EM2 conversion x AC Avonlea; type: in vivo, T. aestivum x T. turgidum; conditions: at least a 20 g/h rate of imazamox
Method: (§5) T. aestivum was used as the bridging species to transfer the EM2 gene from T. monococcum to T. turgidum. In each generation, plants were treated with at least a 20 g/h rate of imazamox prior to selecting plants as parents. An intermediate T. aestivum conversion with the pedigree “Crocus*2/EM2//CDC Tea1/3/2*AC Superb” tolerant to imazamox was crossed by the durum line AC Avonlea. The resultant F1 plants were selfed to produce an F2 population, from which 52/390 plants were identified as resistant (no injury from herbicide application). Some of these were used as females and crossed by AC Avonlea. The resultant BC1F1 plants were again crossed by AC Avonlea. For the subsequent two generations, AC Avonlea was used as the female. The resultant line was designated 00DIMI#17 and had the pedigree: AC Avonlea*2/3/Crocus*2/EM2//CDC Tea1/3/2*AC Superb//3*AC Avonlea. This line was selfed to the F2, and F2 plants treated with 40 g/h of imazamox. Resistant F2 plants were advanced to the F4 generation.

[4] = system: line derived from the cross of 15A and 11A; assay: Seedling injury rating, three-gene line; type: in vivo, wheat
Method: as §1

[5] = system: 00DIMI#17 (EM2 in durum background); assay: Tolerance of EM2 durum recovery 00DIMI#17; type: in vivo, T. turgidum ssp durum
Method: as §5
(§6) The breeding history of the lines tested was previously described (Example 2). […] The doubled haploid derived line P00.45, composed of EM2 in a hexaploid background, was tolerant to 20 g/ha imazamox as a parental check in allelism studies described in Example 3; all plants of the susceptible hexaploid check were killed at that rate.

[6] = system: double-haploid derived line of EM2+FS4; assay: Seedling injury rating, two-gene line EM2+FS4; type: in vivo, wheat
Method: as §1

[7] = system: P00.45 (EM2 in a hexaploid background); assay: Tolerance of doubled haploid line P00.45 (parental check in allelism studies); type: in vivo, T. aestivum ssp aestivum; conditions: 20 g/ha imazamox
Source text: EMIMI is the designation of the T. monococcum EM2 source parent. Crocus is the designation of the T. aestivum ssp aestivum parent used. 605 florets of crocus were pollinated with EMIMI pollen, resulting in 84 F1 seed. 38,409 florets of the F1 plants were pollinated using Crocus pollen, resulting in 2 embryos which were embryo-rescued. The resultant BC1F1 plants were selfed to BC1F2 and treated with 20 g/ha of imazamox. […] Resistant plants were crossed by the bread wheat variety Tea1, representing the 3rd dose of bread wheat. Plants of the resultant line, with a pedigree of Crocus*2/EMIMI//CDC Tea1/3/ were crossed with either AC Elsa or AC Superb and coded respectively, 98PH8 (Elsa cross) and 98PH9 (Superb cross), 98PH8 was crossed an additional six times with AC Elsa and 98PH8 was crossed an additional six times with AC Superb. Two populations were coded as follows: • P00.35=98PH8/6*Elsa=Crocus*2/EM2//CDC Tea1/3/7*AC Elsa • P00.45=98PH9/6*Superb=Crocus*2/EM2//CDC Tea1/3/7*AC Superb. Segregation of the backcross-derived plants in both populations fit an expected 1:1 tolerant:susceptible single gene model when treated with 20 g/h of imazamox. […] Doubled haploids were produced from each population using the maize pollination method. Seven resistant DH lines were obtained from P00.35 and 78 resistant DH lines were obtained from P00.45. […]

[8] = system: backcross-derived plants in populations P00.35 and P00.45; assay: Segregation of backcross-derived plants P00.35 and P00.45; type: in vivo, T. aestivum; conditions: 20 g/h of imazamox; single heterozygous tolerance gene
Source text: (§7) EMIMI is the designation of the T. monococcum EM2 source parent. Crocus is the designation of the T. aestivum ssp aestivum parent used. 605 florets of crocus were pollinated with EMIMI pollen, resulting in 84 F1 seed. 38,409 florets of the F1 plants were pollinated using Crocus pollen, resulting in 2 embryos which were embryo-rescued. The resultant BC1F1 plants were selfed to BC1F2 and treated with 20 g/ha of imazamox. […] Resistant plants were crossed by the bread wheat variety Tea1, representing the 3rd dose of bread wheat. Plants of the resultant line, with a pedigree of Crocus*2/EMIMI//CDC Tea1/3/ were crossed with either AC Elsa or AC Superb and coded respectively, 98PH8 (Elsa cross) and 98PH9 (Superb cross), 98PH8 was crossed an additional six times with AC Elsa and 98PH8 was crossed an additional six times with AC Superb. Two populations were coded as follows: • P00.35=98PH8/6*Elsa=Crocus*2/EM2//CDC Tea1/3/7*AC Elsa • P00.45=98PH9/6*Superb=Crocus*2/EM2//CDC Tea1/3/7*AC Superb. Segregation of the backcross-derived plants in both populations fit an expected 1:1 tolerant:susceptible single gene model when treated with 20 g/h of imazamox. […] Doubled haploids were produced from each population using the maize pollination method. Seven resistant DH lines were obtained from P00.35 and 78 resistant DH lines were obtained from P00.45.

[9] = system: Einkorn check (non-herbicide tolerant); assay: Field evaluation of herbicide injury, Einkorn check; type: in vivo, Triticum monococcum
Method: as §3, §4

Tea1 15A = assay: Seedling injury rating, two-gene line Tea1 15A; type: in vivo, wheat
Method: as §1

[10] = system: BC1F2 plants of Crocus*2/EMIMI; assay: Herbicide treatment of BC1F2 plants (Crocus x EMIMI); type: in vivo, T. aestivum x T. monococcum; conditions: 20 g/ha of imazamox, 24 plants treated
Source text: as §7

[11] = system: EMS-treated Triticum monococcum accession TM23; assay: Selection of tolerant plants after EMS mutagenesis; type: in vivo; conditions: 40 g/ha of imazamox, approximately 2.4 million plants treated
Method: as §2

[12] = system: susceptible hexaploid check / susceptible wheat plants; assay: Tolerance test, susceptible hexaploid check; type: in vivo, T. aestivum
Source text: In all the following discussion, the application rate of the imidazolinone herbicide imazamox that was used in the inheritance studies was 20 grams per hectare.
as §6

[13] = higher rate, 600 grams per hectare
[14] = lower rate, 200 grams per hectare

Q: What does the source list for COCc1cnc(C2=NC(C)(C(C)C)C(=O)N2)c(C(=O)O)c1 (centres unmarked) [imazamox]?
A: plant kill [1]: killed; plants killed (BW755 (FS4 only line)): No plants were killed; seedling injury (BW755 (FS4 only line)): injured at both rates; tolerance ([2]; 40 g/ha rate, field): excellent tolerance; overall crop injury ([2]; 1999, three times during the growing season): only slight injury; overall crop injury [2]; 2000: no injury; plants identified as resistant (no injury from herbicide application) [3]: 52/390; plants killed ([4]; 200 and 600 grams per hectare): No plants were killed; seedling injury ([4]; 200 and 600 grams per hectare, line still segregating): some plants exhibiting injury at both rates; plants without injury ([4]; highest rate, 600 grams per hectare): approximately half the plants had no injury; tolerance of plants ([5]; F4:5 lines, 80 g/h of imazamox): all plants were tolerant; susceptible plants ([5]; F4:5 lines, 124 plants treated with 80 g/h): no susceptible plants were found; survival of plants ([5]; F4 plants, 80 g/h imazamox): All 53 F4 plants tested survived; plants killed ([6]; 200 and 600 grams per hectare): No plants were killed; seedling injury [6, 13]: all were injured; seedling injury [6, 14]: No injury; tolerance [7]: tolerant; injury of plants scored as tolerant [8]: sustained some injury; susceptibility of plants ([9]; 40 grams of imazamox, field): all plants dying; overall crop injury ([9]; 2000, non-herbicide tolerant check): virtually killed; plants killed (Tea1 15A; 200 and 600 grams per hectare): No plants were killed; seedling injury (Tea1 15A; [13]): all were injured; seedling injury (Tea1 15A; [14]): No injury; fully resistant plants [10]: 11; plants that showed some injury [10]: 7; susceptible plants [10]: 6; plants identified as tolerant [11]: Five; plant kill ([12]; 20 g/ha imazamox): killed; plant kill at the rate of the inheritance studies ([12]; 20 grams per hectare): sufficient to kill

Reference: patent US9879235B2, “Wheat plants having increased resistance to imidazolinone herbicides” (University of Saskatchewan, priority 2001, dated 2018)
